Data taken from ChEMBL document CHEMBL3430912, “GSK Tres Cantos Anti-Kinetoplastid Screening (TCAKS) Data”.

Columns and labels:
Trypanosoma cruzi [1] = assay: (§1) GSK_TCAKS: pIC50 H2C9 Imaging: H9c2 Host Cardiomyocytes. […] Cells were then washed once with PBS before infection. T. cruzi trypomastigotes, collected at days 5 to 8 after infection from LLC-MK2 parasite infected cultures, were allowed to swim out for 4h at 37C from a centrifuged pellet (2,500 rpm/10 min/room temperature). Trypomastigotes were then collected and counted in a CASY Cell Counter. Trypomastigotes, in supplemented DMEM, were added to H9c2 cultures in a multiplicity of infection of 1 and incubated for 18 h. Cells were washed once with PBS before incubation of the infected H9c2 monolayer with trypsin (Life-Technologies) to detach cells from the flask. Cells were counted in a CASY Cell Counter using a 150 um capillary and their density set at 5 * 10^4 cells per mL in supplemented assay DMEM. Infected H9c2 were dispensed into 384-well poly-lysine coated assay plates at 50uL per well using a Multidrop Combi dispenser. After seeding them, the plates were incubated at 37C, 5% CO2 for 72h. Cultures were then fixed and stained by addition of 50 uL of a solution containing 8% formaldehyde and 4 uM DRAQ5 DNA dye (BioStatus, UK) per well. […] Five images were collected per well for reliable statistical analysis. Automated image analysis was performed with a script developed on Acapella High Content Imaging and Analysis Software (PerkinElmer). Output: Number of H9c2 Host Cardiomyocytes nuclei to determine drug-related cytotoxicity.; format: functional, organism-based, Rattus norvegicus; conditions: H9c2, 4 h
Leishmania donovani [2] = assay: GSK_TCAKS: pIC50 Leishmania donovani Imaging: THP-1 Host Macrophages. Assay plates (384-well) were prepared by adding 250nL of compound to each well. For single shot assay, the final compound concentration was 5 uM. […] Automated image analysis was performed with a script developed on Acapella High Content Imaging and Analysis Software (PerkinElmer). Output: THP-1 cell count were reported for each well.; format: functional, organism-based, Homo sapiens
[3] = target: Sterol 14-alpha demethylase (Trypanosoma cruzi (strain CL Brener), UniProt Q7Z1V1); assay: GSK_TCAKS: pIC50 CYP51 from Trypanosoma cruzi.; format: functional
Sterol 14-alpha demethylase, sequence (Q7Z1V1 whole entry): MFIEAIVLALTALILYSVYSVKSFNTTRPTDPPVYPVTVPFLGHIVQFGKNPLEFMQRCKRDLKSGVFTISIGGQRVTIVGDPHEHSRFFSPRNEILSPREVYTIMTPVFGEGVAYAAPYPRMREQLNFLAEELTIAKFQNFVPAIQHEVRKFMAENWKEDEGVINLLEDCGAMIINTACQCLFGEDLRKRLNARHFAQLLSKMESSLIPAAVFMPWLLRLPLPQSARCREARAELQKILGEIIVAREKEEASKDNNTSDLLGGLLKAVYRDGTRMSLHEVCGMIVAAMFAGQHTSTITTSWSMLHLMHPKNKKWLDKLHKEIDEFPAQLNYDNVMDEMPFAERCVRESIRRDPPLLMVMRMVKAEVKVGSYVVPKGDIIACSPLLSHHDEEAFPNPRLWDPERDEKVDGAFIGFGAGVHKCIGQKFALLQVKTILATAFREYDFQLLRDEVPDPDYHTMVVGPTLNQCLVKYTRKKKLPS

Trypanosoma cruzi [4] = assay: as §1, with “Trypanosoma cruzi” for “H2C9”, “Infected Cells.” for “H9c2 Host Cardiomyocytes.”, “percentage” for “Number”, “infected cells per well as a second infection marker.” for “H9c2 Host Cardiomyocytes nuclei to determine drug-related cytotoxicity.”; format: functional, organism-based, Rattus norvegicus; conditions: H9c2, 4 h
NIH3T3 = assay: GSK_TCAKS: pIC50 NIH 3T3 cell line viability assay using luminiscence. Tissue culture surface treated assay plates (1536-well) were used. […] The 100% cells survival control was determined exposing the host-cells to a 0.5% DMSO concentration, whereas the 100% toxicity control was achieved by seeding the cells in presence of Amphotericin B at 50uM. Plates were incubated for four days at 37C, 5% CO2. The assay readout was developed by addition of 5uL of CellTiter-Glo Reagent following the manufacturer's instructions. Luminiscence was measured using a ViewLux.; format: functional, cell-based; conditions: Mus musculus, NIH3T3, 96 h
[5] = test system: Trypanosoma brucei brucei; assay: GSK_TCAKS: pIC50 Trypanosoma brucei viability assay using luminiscence. Assay plates (1536-well) were prepared. T. brucei cultures were harvested and counted in a CASY cell counter. A parasite suspension was prepared at a final concentration of 5 * 10^4 cells/mL in complete HMI9 medium and 6uL was dispensed to all wells containing compounds using a Multidrop Combi dispenser. 6uL of HMI9 media with 0.4% DMSO were dispensed to control columns. Plates were incubated for 24 h at 37C, 5% CO2 then tempered for 10 min at room temperature. ATP content was quantified by adding 4 uL of CellTiter-Glo Reagent (Promega) according to the manufacturer's instructions. Luminescence was measured using a ViewLux.; format: functional, organism-based; conditions: Lister 427, CASY
Trypanosoma cruzi [6] = assay: as §1, with “Trypanosoma cruzi” for “H2C9”, “Amastigotes/Cell.” for “H9c2 Host Cardiomyocytes.”, “number” for “Number”, “amastigotes per cell as infection level measurement.” for “H9c2 Host Cardiomyocytes nuclei to determine drug-related cytotoxicity.”; format: functional, organism-based, Rattus norvegicus; conditions: H9c2, 4 h
Leishmania donovani [7] = assay: GSK_TCAKS: pIC50 Leishmania donovani Imaging: Infected Macrophages. Assay plates (384-well) were prepared by adding 250nL of compound to each well. For single shot assay, the final compound concentration was 5 uM. […] Automated image analysis was performed with a script developed on Acapella High Content Imaging and Analysis Software (PerkinElmer). Output: Percent of infected macrophage cells were reported for each well.; format: functional, organism-based, Homo sapiens; conditions: THP-1
Trypanosoma cruzi [8] = assay: GSK_TCAKS: pIC50 Trypanosoma cruzi viability assay using beta-GAL activity. This assay was run at single shot at 5uM compound concentration per well. The biological reagents consisted of NIH-3T3 host cells and trypomastigotes parasitic cells; both cell types were set to a 3.3 * 10^5 cells/mL dilution in assay DMEM by means of a CASY cell counter device using a 60um capillary. 6 uL of the mixture were dispensed per well (about 1 * 10^3 host-cells and 1 * 10^3 parasites) with a Multidrop Combi dispenser. […] In all wells, the percentage of DMSO never exceeded 0.5%. Plates incubated for four days at 37C, 5% CO2. The substrate used for the assay fluorescence intensity (FLINT) readout was resorufin-beta-D-galactopiranoside (Sigma-Aldrich) at 5uM per well. It was diluted in PBS supplemented with the soft detergent Igepal (Fluka).; format: functional, organism-based, Mus musculus; conditions: Tulahuen, NIH3T3
Leishmania donovani [9] = assay: GSK_TCAKS: pIC50 Leishmania donovani viability assay using fluorescence intensity. Assay plates (1536-well) were prepared by adding 30nL per well of compound. For single shot assay, the final compound concentration was 5uM. […] Briefly, eGFP LdBOB axenic amastigotes were harvested, fixed and counted in a CASY cell counter (Roche-Applied Science). A final concentration of 1.5 * 10^5 cells per well were prepared in amastigote media containing 500 U/mL penicillin/streptomycin (Invitrogen) and 6uL was dispensed to each experimental well using a Multidrop Combi dispenser (Thermo Scientific). 6uL of assay media was dispensed to control columns used as reference for 100% compound response. Following incubation for 72 h at 37C, 5% CO2, 2 uL of resazurin was added to each well at a final concentration of 0.5 mM in phosphate buffered saline (PBS) with IGEPAL (Sigma-Aldrich), 0.05% (v/v).; format: functional, organism-based
Leishmania donovani [10] = assay: GSK_TCAKS: pIC50 Leishmania donovani Imaging: Amastigotes/Macrophages. Assay plates (384-well) were prepared by adding 250nL of compound to each well. For single shot assay, the final compound concentration was 5 uM. […] Automated image analysis was performed with a script developed on Acapella High Content Imaging and Analysis Software (PerkinElmer). Output: Average number of amastigotes per macrophage cell were reported for each well.; format: functional, organism-based, Homo sapiens; conditions: THP-1
[11] = GSK_TCAKS: pIC50 HepG2 human cell line viability assay using luminiscence. […] Seeding density was checked to ensure that new mono-layers were not more than 50% confluent at the time of harvesting. Cell suspension was added to 500 mL of the same medium at a final density of 1.2 * 10^5 cells/mL. This cell suspension was dispensed (25 uL, 3000 cells per well) into 384-well clear-bottom plates using a Multidrop Combi dispenser. Prior to addition of the cell suspension, the screening compounds (250 nL) were pre-dispensed into the plates with an Echo liquid handler. Plates were incubated for 48 h at 37C, 5% CO2. After incubation, plates equilibrated at room temperature for 30 min before proceeding to develop the luminescent signal. The signal developer, CellTiter-Glo Reagent, was allowed to equilibrate at room temperature for 30 min and added to the plates (25uL per well) using a Multidrop Combi dispenser. Plates were left for 10 min at room temperature for stabilization and then read using a ViewLux.; format: toxicity, cell-based
[12] = test system: Trypanosoma brucei brucei; assay: GSK_TCAKS: pIC50 Trypanosoma brucei viability assay using fluorescence intensity. Assay plates (1536-well) were prepared by dispensing 25nL of compound solution per well using an Echo acoustic dispenser (Labcyte).; format: functional, organism-based; conditions: Lister 427, 2 h

Compound | IC50 (Trypanosoma cruzi [1]) [µM] | IC50 (Leishmania donovani [2]) [µM] | IC50 [3] [µM] | IC50 (Trypanosoma cruzi [4]) [µM] | IC50 (NIH3T3) [µM] | IC50 [5] [µM] | IC50 (Trypanosoma cruzi [6]) [µM] | IC50 (Leishmania donovani [7]) [µM] | IC50 (Trypanosoma cruzi [8]) [µM] | IC50 (Leishmania donovani [9]) [µM] | IC50 (Leishmania donovani [10]) [µM] | IC50 at 48 h [11] [µM] | IC50 [12] [µM]
COc1ccc(NS(=O)(=O)c2cc(NC(=O)c3ccc([N+](=O)[O-])s3)ccc2OC)cc1 | > 50.1 | 12.6 | 1 | 0.1 | > 50.1 | 0.126 | 0.0794 | 0.794 | 0.0708 | 0.501 | 0.794 | > 100 | 0.0501
CC(=O)Nc1ccc(-c2csc(NC(=O)c3ccc([N+](=O)[O-])s3)n2)cc1 | 5.01 | 12.6 | 6.31 | 0.126 | 6.31 | 0.158 | 0.1 | 1 | 0.126 | 0.398 | 0.794 | 50.1 | 0.0251
N#Cc1cccc(CN2CCC(N(Cc3cccnc3)C(=O)c3cc(F)c(F)cc3F)CC2)c1 | > 50.1 | > 50.1 | 0.0501 | 0.398 | 20 | > 39.8 | 0.316 | > 50.1 | 0.398 | > 50.1 | 12.6 | > 100 | > 39.8
N#Cc1cccc(CN2CCC(c3nc(-c4ccc(C(F)(F)F)nc4)no3)CC2)c1 | > 50.1 | > 50.1 | > 100 | 2 | > 50.1 | > 39.8 | 2.51 | > 50.1 | 2 | 12.6 | > 50.1 | > 100 | > 39.8
COc1ccc(-c2nc3ccncc3c(=O)n2CCOc2ccccc2)cc1 | > 50.1 | > 50.1 | 0.0398 | 0.398 | 31.6 | 31.6 | 0.398 | > 50.1 | 0.631 | 39.8 | > 50.1 | > 100 | 25.1
Cc1cccc(N2CCCN(Cc3c[nH]c4ccccc34)CC2)n1 | 2.51 | 10 | > 100 | 0.398 | 25.1 | 12.6 | 0.316 | 10 | 0.316 | > 50.1 | 10 | 12.6 | 12.6
O=C(CCCn1cnc([N+](=O)[O-])n1)Nc1cccc(Cl)c1 | > 50.1 | > 50.1 | 50.1 | 0.501 | > 50.1 | > 39.8 | 0.158 | > 50.1 | 0.2 | > 50.1 | > 50.1 | > 100 | 5.01
CC1=C(C(=O)Nc2ccc(Cl)cc2)C(c2ccncc2)n2ncc(C(=O)Nc3ccccc3)c2N1 (stereo not given) | > 50.1 | 12.6 | 0.126 | 0.02 | 31.6 | > 39.8 | 0.02 | > 50.1 | 0.02 | 0.126 | > 50.1 | 79.4 | 3.16
O=C(NCCc1cccnc1)c1ccc(-c2ccccc2F)o1 | > 50.1 | > 50.1 | 0.0631 | 0.2 | 39.8 | > 39.8 | 0.2 | > 50.1 | 0.112 | 20 | > 50.1 | > 100 | 31.6
Cc1ccc2c(c1)-c1onc(C(=O)N3CCCCC3c3cccnc3)c1CO2 (stereo not given) | > 50.1 | 39.8 | 0.1 | 0.126 | 20 | > 39.8 | 0.126 | > 50.1 | 0.1 | 31.6 | 39.8 | 50.1 | 39.8
